Consider 34 molecules from patent US12459899B2, “Isoquinolinone derivatives, method for preparing the same, and pharmaceutical composition for preventing or treating poly(ADP-ribose) polymerase-1-related diseases, comprising the same as active ingredient” (DIGMBIO. INC., priority 2019, dated 2025).

Where a name gives a salt, the structure may show the parent alone.

Chain of PARP-1 (poly[ADP-ribose] polymerase 1) enzyme (P09874 whole entry): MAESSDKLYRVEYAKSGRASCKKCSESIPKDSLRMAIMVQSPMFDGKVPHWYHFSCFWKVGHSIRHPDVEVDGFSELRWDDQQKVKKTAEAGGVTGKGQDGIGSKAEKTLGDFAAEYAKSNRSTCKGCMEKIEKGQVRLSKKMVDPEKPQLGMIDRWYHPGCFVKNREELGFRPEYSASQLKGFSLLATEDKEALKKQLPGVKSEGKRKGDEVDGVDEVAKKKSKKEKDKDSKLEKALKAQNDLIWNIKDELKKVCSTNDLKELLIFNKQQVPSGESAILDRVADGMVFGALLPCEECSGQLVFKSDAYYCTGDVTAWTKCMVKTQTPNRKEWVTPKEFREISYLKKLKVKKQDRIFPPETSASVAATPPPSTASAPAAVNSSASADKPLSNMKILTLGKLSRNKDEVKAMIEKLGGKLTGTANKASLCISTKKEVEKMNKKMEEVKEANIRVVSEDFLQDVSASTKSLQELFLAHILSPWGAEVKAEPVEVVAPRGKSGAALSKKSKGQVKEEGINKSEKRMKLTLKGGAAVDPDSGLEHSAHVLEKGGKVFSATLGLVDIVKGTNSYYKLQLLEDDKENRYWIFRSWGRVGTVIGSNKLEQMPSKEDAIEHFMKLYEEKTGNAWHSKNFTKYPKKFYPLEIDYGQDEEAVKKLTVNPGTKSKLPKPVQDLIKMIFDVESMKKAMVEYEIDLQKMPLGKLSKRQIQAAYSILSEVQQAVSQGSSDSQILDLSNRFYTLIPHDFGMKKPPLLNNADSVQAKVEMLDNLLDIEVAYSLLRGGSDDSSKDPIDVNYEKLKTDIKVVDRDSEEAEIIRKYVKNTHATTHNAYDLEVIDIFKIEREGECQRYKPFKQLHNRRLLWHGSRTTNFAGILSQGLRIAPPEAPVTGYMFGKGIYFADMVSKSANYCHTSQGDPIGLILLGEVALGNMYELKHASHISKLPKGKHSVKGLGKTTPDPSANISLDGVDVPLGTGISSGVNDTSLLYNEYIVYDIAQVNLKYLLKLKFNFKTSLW

The first experiment has as its target PARP-1 (poly[ADP-ribose] polymerase 1) enzyme (Homo sapiens (Human), UniProt P09874). As to the kind of experiment: PARP-1 (poly[ADP-ribose] polymerase 1) enzyme inhibitory ability, Trevigen assay kit. It is filed as biochemical. As to conditions: 1 nM compound; read-out: PAR P-1 Inhibitory ability at 1 nM. In outline: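 After the 1 hour PARP reaction, wells were washed with PBS containing 0.1% triton X-100 and then PBS. Strep-HRP (50 μL) was bound for 1 hour, wells washed again, and 50 μL of TACS-sapphire substrate developed 15 minutes in the dark. Reactions were stopped with 50 μL of 5% phosphoric acid and absorbance read at 450 nm on a Victor3 reader.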
`Cc1ccc(F)c2c(=O)[nH]c(CCC(=O)N3CCN(c4ccc(F)cc4F)CC3)cc12` [Example 132, 3-(3-(4-(2,4-difluorophenyl)piperazin-1-yl)-3-oxopropyl)-8-fluoro-5-methylisoquinolin-1(2H)-one]: the inhibition at 0.001 µM was below 50%.
`Cc1ccc(F)c2c(=O)[nH]c(CCC(=O)N3CCN(C(=O)C4CCCN4)CC3)cc12` (stereo not drawn) [Example 196, hydrochloride]: the inhibition at 0.001 µM is below 50%.
With `Cc1cc(F)cc2c(=O)[nH]c(CCCN3CC=C(c4ccc(C(F)(F)F)cc4)CC3)cc12` [Example 64, 7-fluoro-5-methyl-3-(3-(4-(4-(trifluoromethyl)phenyl)-3,6-dihydropyridin-1(2H)-yl)propyl)isoquinolin-1(2H)-one], the inhibition at 0.001 µM is below 50%.
Regarding `O=C(CCc1cc2cccc(F)c2c(=O)[nH]1)N1CCN(c2ccc(F)cc2F)CC1` [Example 78, 3-(3-(4-(2,4-difluorophenyl)piperazin-1-yl)-3-oxopropyl)-8-fluoroisoquinolin-1(2H)-one], the inhibition at 0.001 µM is below 50%.
Turning to `O=C(CCc1cc2ccc(F)cc2c(=O)[nH]1)N1CCN(C(=O)C2CCCO2)CC1` (stereo not drawn) [Example 192, 7-fluoro-3-(3-oxo-3-(4-(tetrahydrofuran-2-carbonyl)piperazin-1-yl)propyl)isoquinolin-1(2H)-one], the inhibition at 0.001 µM is below 50%.
For the molecule `Cc1cc(F)cc2c(=O)[nH]c(CCC(=O)N3C4CCC3CN(c3ccc(C#N)cn3)C4)cc12` [Example 214], the inhibition at 0.001 µM is below 50%.
For the molecule `Cc1cc(F)cc2c(=O)[nH]c(CCC(=O)N3CCN(c4ccc(C#N)cc4)CC3)cc12` [Example 149, 4-(4-(3-(7-fluoro-5-methyl-1-oxo-1,2-dihydroisoquinolin-3-yl)propanoyl)piperazin-1-yl)benzonitrile], the inhibition at 0.001 µM is below 50%.
The same measure, in the same setting: the figure for `O=c1[nH]c(CCCN2C3CCC2CN(c2ccc(F)cn2)C3)cc2ncccc12` [Example 231, 7-(3-(3-(5-fluoropyridin-2-yl)-3,8-diazabicyclo[3.2.1]octan-8-yl)propyl)-1,6-naphthyridin-5(6H)-one] is below 50%; for `COC(=O)c1cccc(N2CCN(CCCc3cc4ccc(F)cc4c(=O)[nH]3)CC2)c1` [Example 18, methyl 3-(4-(3-(7-fluoro-1-oxo-1,2-dihydroisoquinolin-3-yl)propyl)piperazin-1-yl)benzoate] it is below 50%; for `N#Cc1ccc(C2=CCN(C(=O)CCc3cc4cccc(F)c4c(=O)[nH]3)CC2)cn1` [Example 93, 1′-(3-(8-fluoro-1-oxo-1,2-dihydroisoquinolin-3-yl)propanoyl)-1′,2′,3′,6′-tetrahydro-[3,4′-bipyridine]-6-carbonitrile] it is below 50%.
For `Cc1cc(F)cc2c(=O)[nH]c(CCC(=O)N3CCN(c4ccc(F)cc4C#N)CC3)cc12` [Example 159, 5-fluoro-2-(4-(3-(7-fluoro-5-methyl-1-oxo-1,2-dihydroisoquinolin-3-yl)propanoyl)piperazin-1-yl)benzonitrile], the inhibition at 0.001 µM is below 50%.
As to `Cc1cc(F)cc2c(=O)[nH]c(CCCN3CCN(c4ccc(C#N)cc4)CC3)cc12` [Example 34, 4-(4-(3-(7-fluoro-5-methyl-1-oxo-1,2-dihydroisoquinolin-3-yl)propyl)piperazin-1-yl)benzonitrile], the inhibition at 0.001 µM was below 50%.
With `Cc1ccc(F)c2c(=O)[nH]c(CCCN3CC=C(c4ccc([N+](=O)[O-])cc4F)CC3)cc12` [Example 56, 8-fluoro-3-(3-(4-(2-fluoro-4-nitrophenyl)-3,6-dihydropyridin-1(2H)-yl)propyl)-5-methylisoquinolin-1(2H)-one], the inhibition at 0.001 µM is below 50%.
The same measure, in the same setting: the figure for `O=C(CCc1cc2cccc(F)c2c(=O)[nH]1)N1CCN(C(=O)C2CCCCC2)CC1` [Example 170, 3-(3-(4-(cyclohexanecarbonyl)piperazin-1-yl)-3-oxopropyl)-8-fluoroisoquinolin-1(2H)-one] is below 50%; for `Cc1cc(F)cc2c(=O)[nH]c(CCC(=O)N3CCN(c4cc(F)cc(C#N)c4)CC3)cc12` [Example 166, 3-fluoro-5-(4-(3-(7-fluoro-5-methyl-1-oxo-1,2-dihydroisoquinolin-3-yl)propanoyl)piperazin-1-yl)benzonitrile] it is below 50%.
On to `Cc1cc(F)cc2c(=O)[nH]c(CCC(=O)N3CCN(C(=O)C4CCCO4)CC3)cc12` (stereo not drawn) [Example 193, 7-fluoro-5-methyl-3-(3-oxo-3-(4-(tetrahydrofuran-2-carbonyl)piperazin-1-yl)propyl)isoquinolin-1(2H)-one], for which the inhibition at 0.001 µM is below 50%.
Consider `Cc1cc(F)cc2c(=O)[nH]c(CCC(=O)N3CCN(c4ccc(F)c(C#N)c4)CC3)cc12` [Example 158, 2-fluoro-5-(4-(3-(7-fluoro-5-methyl-1-oxo-1,2-dihydroisoquinolin-3-yl)propanoyl)piperazin-1-yl)benzonitrile], for which the inhibition at 0.001 µM was below 50%.
Consider `Cc1ccc(F)c2c(=O)[nH]c(CCCN3C4CCC3CN(c3ccc(C#N)cn3)C4)cc12` [Example 199], for which the inhibition at 0.001 µM was below 50%.
Take `Cc1ccc(F)c2c(=O)[nH]c(CCC(=O)N3CC=C(c4ccc(F)cn4)CC3)cc12` [Example 130, 8-fluoro-3-(3-(5-fluoro-3′,6′-dihydro-[2,4′-bipyridine]-1′(2′H)-yl)-3-oxopropyl)-5-methylisoquinolin-1(2H)-one]: the inhibition at 0.001 µM was below 50%.
As to `Cc1ccc(F)c2c(=O)[nH]c(CCC(=O)N3CCN(c4ccc(C#N)cc4F)CC3)cc12` [Example 128, 3-fluoro-4-(4-(3-(8-fluoro-5-methyl-1-oxo-1,2-dihydroisoquinolin-3-yl)propanoyl)piperazin-1-yl)benzonitrile], the inhibition at 0.001 µM was below 50%.
On to `Cc1cc(F)cc2c(=O)[nH]c(CCCN3CC=C(c4ccc(C#N)cc4)CC3)cc12` [Example 58, 4-(1-(3-(7-fluoro-5-methyl-1-oxo-1,2-dihydroisoquinolin-3-yl)propyl)-1,2,3,6-tetrahydropyridin-4-yl)benzonitrile], for which the inhibition at 0.001 µM lay in the range of 50 to 80%.
For the molecule `Cc1cc(F)cc2c(=O)[nH]c(CCC(=O)N3CC=C(c4ccc(F)cc4C#N)CC3)cc12` [Example 161, 5-fluoro-2-(1-(3-(7-fluoro-5-methyl-1-oxo-1,2-dihydroisoquinolin-3-yl)propanoyl)-1,2,3,6-tetrahydropyridin-4-yl)benzonitrile], the inhibition at 0.001 µM is below 50%.
`Cc1ccc(F)c2c(=O)[nH]c(CCC(=O)N3CC=C(c4ccc(F)c(C#N)c4)CC3)cc12` [Example 139, 2-fluoro-5-(1-(3-(8-fluoro-5-methyl-1-oxo-1,2-dihydroisoquinolin-3-yl)propanoyl)-1,2,3,6-tetrahydropyridin-4-yl)benzonitrile]: the inhibition at 0.001 µM was below 50%.
Turning to `Cc1cc(F)cc2c(=O)[nH]c(CCC(=O)N3CCC(Nc4ccc(C#N)cc4)CC3)cc12` [Example 260, 4-((1-(3-(7-fluoro-5-methyl-1-oxo-1,2-dihydroisoquinolin-3-yl)propanoyl)piperidin-4-yl)amino)benzonitrile], the inhibition at 0.001 µM is below 50%.
In the case of `Cc1cc(F)cc2c(=O)[nH]c(CCCN3CC=C(c4ccc(F)cn4)CC3)cc12` [Example 62, 7-fluoro-3-(3-(5-fluoro-3′,6′-dihydro-[2,4′-bipyridine]-1′(2′H)-yl)propyl)-5-methylisoquinolin-1(2H)-one], the inhibition at 0.001 µM was below 50%.
Take `N#Cc1cc(N2CCN(C(=O)CCc3cc4cccc(F)c4c(=O)[nH]3)CC2)ccc1F` [Example 80, 2-fluoro-5-(4-(3-(8-fluoro-1-oxo-1,2-dihydroisoquinolin-3-yl)propanoyl)piperazin-1-yl)benzonitrile]: the inhibition at 0.001 µM was below 50%.
As for `Cc1ccc(F)c2c(=O)[nH]c(CCC(=O)N3CCN(c4ccc(Cl)cc4)CC3)cc12` [Example 131, 3-(3-(4-(4-chlorophenyl)piperazin-1-yl)-3-oxopropyl)-8-fluoro-5-methylisoquinolin-1(2H)-one], the inhibition at 0.001 µM is below 50%.
Regarding `N#Cc1ccc(N2CC3CCC(C2)N3C(=O)CCc2cc3ncccc3c(=O)[nH]2)cc1` [Example 246, 4-(8-(3-(5-oxo-5,6-dihydro-1,6-naphthyridin-7-yl)propanoyl)-3,8-diazabicyclo[3.2.1]octan-3-yl)benzonitrile], the inhibition at 0.001 µM is below 50%.
With `N#Cc1ccc(C2=CCN(C(=O)CCc3cc4cccc(F)c4c(=O)[nH]3)CC2)cc1` [Example 69, 4-(1-(3-(8-fluoro-1-oxo-1,2-dihydroisoquinolin-3-yl)propanoyl)-1,2,3,6-tetrahydropyridin-4-yl)benzonitrile], the inhibition at 0.001 µM was below 50%.
Take `O=c1[nH]c(CCCN2CCN(c3ccc(C(F)(F)F)cc3)CC2)cc2cccc(F)c12` [Example 4, 8-fluoro-3-(3-(4-(4-(trifluoromethyl)phenyl)piperazin-1-yl)propyl)isoquinolin-1(2H)-one]: the inhibition at 0.001 µM is below 50%.
On to `Cc1cc(F)cc2c(=O)[nH]c(CCC(=O)N3CCN(c4cc(C#N)ccc4F)CC3)cc12` [Example 156, 4-fluoro-3-(4-(3-(7-fluoro-5-methyl-1-oxo-1,2-dihydroisoquinolin-3-yl)propanoyl)piperazin-1-yl)benzonitrile], for which the inhibition at 0.001 µM was below 50%.
In the case of `N#Cc1ccc(F)cc1N1CCN(C(=O)CCc2cc3ccc(F)cc3c(=O)[nH]2)CC1` [Example 108, 4-fluoro-2-(4-(3-(7-fluoro-1-oxo-1,2-dihydroisoquinolin-3-yl)propanoyl)piperazin-1-yl)benzonitrile], the inhibition at 0.001 µM is below 50%.
With `O=C(CCc1cc2ccc(F)cc2c(=O)[nH]1)N1CCN(C(=O)C2CCCC2)CC1` [Example 176, 3-(3-(4-(cyclopentanecarbonyl)piperazin-1-yl)-3-oxopropyl)-7-fluoroisoquinolin-1(2H)-one], the inhibition at 0.001 µM is below 50%.

Staying with this experiment, now noted: PARP-1 enzyme activity.
The term IC50 denotes the concentration at which inhibition is half-maximal. The low end stands for inhibition by little substance, the high end for a need for much substance. On to `Cc1ccc(F)c2c(=O)[nH]c(CCC(=O)N3CCN(c4ccc(C#N)cc4F)CC3)cc12` [Example 128, 3-fluoro-4-(4-(3-(8-fluoro-5-methyl-1-oxo-1,2-dihydroisoquinolin-3-yl)propanoyl)piperazin-1-yl)benzonitrile], for which 1.38 nM corresponded to half-maximal inhibition (IC50).
Regarding `Cc1cc(F)cc2c(=O)[nH]c(CCCN3CC=C(c4ccc(C#N)cc4)CC3)cc12` [Example 58, 4-(1-(3-(7-fluoro-5-methyl-1-oxo-1,2-dihydroisoquinolin-3-yl)propyl)-1,2,3,6-tetrahydropyridin-4-yl)benzonitrile], the midpoint of inhibition, the IC50, lay at 1.76 nM.
As for `O=c1[nH]c(CCCN2CCN(c3ccc(F)cc3)CC2)cc2ccc(F)cc12` [Example 15, 7-fluoro-3-(3-(4-(4-fluorophenyl)piperazin-1-yl)propyl)isoquinolin-1(2H)-one], half-maximal inhibition (IC50) required 4.01 nM.
